Measured values from ChEMBL document CHEMBL1147612, “Synthesis, topoisomerase I inhibition and structure-activity relationship study of 2,4,6-trisubstituted pyridine derivatives” (Bioorg Med Chem Lett, 2004).

How the values were obtained:
Assay type in all cases: functional, cell-based
[1] = tested on: SK-OV-3; experiment: Antitumor cytotoxicity was determined against the SK-OV-3 (human ovary adenocarcinoma) cell line; Range: 0.01 to 0.03; details: SK-OV-3, Female gonad
[2] = tested on: A549; experiment: Antitumor cytotoxicity was determined against the A-549(human lung carcinoma) cell line; Range: 0.01 to 0.03
[3] = tested on: SK-MEL-2; experiment: Antitumor cytotoxicity was determined against the SK-MEL-2 (human malignant melanoma) cell line; Range: 0.01 to 0.03
[4] = tested on: HCT-15; experiment: Antitumor cytotoxicity was determined against the HCT-15 (human colon adenocarcinoma) cell line; Range: 0.01 to 0.03

Measured: EC50

c1ccc(-c2cc(-c3ccccn3)nc(-c3ccccn3)c2)nc1
30 nM: all assays above
